The values below come from patent US8927689B2, “Peptide nanostructures and methods of generating and using the same” (Ramot at Tel-Aviv University Ltd., priority 2002, dated 2015).

One data set has as its target Proteinase K (Parengyodontium album, UniProt P06873). As to the kind of experiment: Incubation of peptide nanotubes with Proteinase K, electron microscopy examination. It is filed as in vitro ADME. Particulars: one hour of incubation with 0.02 mg/ml of Proteinase K; compared with before incubation. The text has this:
For other applications, such as the assembly of nanotube based biosensors or hollow tubing of nanofluidic circuits, enzymatically stable nanotubes are desired. To assemble such stable tubes, proteolytically stable building blocks based on the D-amino-acids analogue of the peptide, NH2-D-Phe-D-Phe-COOH (SEQ ID NO: 8) were used. This peptide formed nanotubes with the same structural features as the corresponding L-amino-acids peptide (FIG. 12a).

Data set [1] can be described thus: Dissolving lyophilized peptide in 1,1,1,3,3,3-hexafluoro-2-propanol. It is filed as physicochemical. Particulars: 100 mg/ml. As to the method: Peptides (NH2-Phe-Phe-COOH, SEQ ID NO: 1) were purchased from Bachem (Budendorf, Switzerland). Freshly prepared stock solution was prepared by dissolving lyophilized form of the peptide in 1,1,1,3,3,3,-Hexafluoro-2-propanol at a concentration of 100 mg/ml. To avoid any pre-aggregation, fresh stock solution were prepared for each experiment.
Very concentrated peptide solution (i.e., 100 mg/ml) were prepared by dissolving the lyophilized peptide in 1,1,1,3,3,3 hexafluoro-2-propanol. […] Assembly into supramolecular structures was determined within minutes at the μM range, using dynamic light scattering analysis (data not shown).

Non-standard residues stand in square brackets, D forms with d. Residues, ends and D or L forms follow the SMILES beside them.

Proteinase K, sequence (P06873 106-384): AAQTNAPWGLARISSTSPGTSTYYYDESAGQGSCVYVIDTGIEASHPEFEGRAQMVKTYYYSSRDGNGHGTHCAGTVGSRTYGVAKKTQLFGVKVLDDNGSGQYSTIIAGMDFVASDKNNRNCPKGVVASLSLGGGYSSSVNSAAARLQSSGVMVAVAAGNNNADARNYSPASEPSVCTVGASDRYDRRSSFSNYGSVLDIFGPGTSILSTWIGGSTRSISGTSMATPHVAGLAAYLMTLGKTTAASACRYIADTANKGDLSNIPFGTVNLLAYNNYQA

For the compound `N[C@@H](Cc1ccccc1)C(=O)N[C@@H](Cc1ccccc1)C(=O)O` [NH2-Phe-Phe-COOH] (H-Phe-Phe-OH), the “tubular structures observed by electron microscopy after proteolysis” value on Proteinase K is “no tubular structures were observed”. Besides, the “solubility in the organic solvent” value in data set [1] is on record as “highly soluble”. On to `N[C@H](Cc1ccccc1)C(=O)N[C@H](Cc1ccccc1)C(=O)O` [D-Phe-D-Phe, NH2-D-Phe-D-Phe-COOH] (H-[dF]-[dF]-OH), for which the “tubular structures observed by electron microscopy after proteolysis” value on Proteinase K is listed as “no significant variation”.
